{"source": "PubChem BioAssay AID1963865", "about": "(Molecular Pharmacology Branch, DTP, NCI, 2024);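 also: spheroids exposed to compounds for 7 days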;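 as to viability, T/C: 100% = DMSO vehicle control viability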", "tested_on": "KRAS PDC multicell spheroid viability", "assay": "Anticancer human tumor 825966-067-R-J1-PDC patient-derived colon carcinoma cell line growth inhibition [KRAS2]", "conditions": "for viability, T/C: stronger effect = lower value", "in_short": "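Combination screen of spheroid viability in tumor-cell co-cultures with endothelial (HUVEC) and mesenchymal stem cell stroma. Each agent was tested in half-log dilutions, topping at clinical Cmax or at 10 microM without a known Cmax.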", "key": {"[1]": {"conditions": "curve of first compound, second compound 0.1 µM"}, "[2]": {"conditions": "curve of first compound, second compound 0.316 µM"}, "[3]": {"conditions": "curve of first compound, second compound 1 µM"}, "[4]": {"conditions": "curve of first compound, second compound 3.16 µM"}, "[5]": {"conditions": "curve of first compound, second compound 10 µM"}, "[6]": {"conditions": "second compound 0.1 µM, first compound 0.0316 µM"}, "[7]": {"conditions": "second compound 0.1 µM, first compound 0.1 µM"}, "[8]": {"conditions": "second compound 0.316 µM, first compound 0.0316 µM"}, "[9]": {"conditions": "second compound 0.316 µM, first compound 0.1 µM"}, "[10]": {"conditions": "second compound 1 µM, first compound 0.0316 µM"}, "[11]": {"conditions": "second compound 1 µM, first compound 0.1 µM"}, "[12]": {"conditions": "second compound 3.16 µM, first compound 0.0316 µM"}, "[13]": {"conditions": "second compound 3.16 µM, first compound 0.1 µM"}, "[14]": {"conditions": "second compound 10 µM, first compound 0.0316 µM"}, "[15]": {"conditions": "second compound 10 µM, first compound 0.1 µM"}}}
{"smiles": "CN(C)C/C=C/C(=O)Nc1cc2c(Nc3ccc(F)c(Cl)c3)ncnc2cc1O[C@H]1CCOC1", "note": "+ CC1OCC2(CCN(c3cnc(Sc4ccnc(N)c4Cl)c(N)n3)CC2)C1N", "values": [{"measurement": "IC50", "setting": "[1]", "value": "> 100", "unit": "nM"}, {"measurement": "IC50", "setting": "[2]", "value": "> 100", "unit": "nM"}, {"measurement": "IC50", "setting": "[3]", "value": "> 100", "unit": "nM"}, {"measurement": "IC50", "setting": "[4]", "value": "> 100", "unit": "nM"}, {"measurement": "IC50", "setting": "[5]", "value": "> 100", "unit": "nM"}, {"measurement": "viability, T/C", "setting": "second compound 0.1 µM, first compound 0.000316 µM", "value": 103, "unit": "%"}, {"measurement": "viability, T/C", "setting": "second compound 0.1 µM, first compound 0.001 µM", "value": 100, "unit": "%"}, {"measurement": "viability, T/C", "setting": "second compound 0.1 µM, first compound 0.00316 µM", "value": 126, "unit": "%"}, {"measurement": "viability, T/C", "setting": "second compound 0.1 µM, first compound 0.01 µM", "value": 120, "unit": "%"}, {"measurement": "viability, T/C", "setting": "[6]", "value": 91.4, "unit": "%"}, {"measurement": "viability, T/C", "setting": "[7]", "value": 80.2, "unit": "%"}, {"measurement": "viability, T/C", "setting": "second compound 0.316 µM, first compound 0.000316 µM", "value": 93.4, "unit": "%"}, {"measurement": "viability, T/C", "setting": "second compound 0.316 µM, first compound 0.001 µM", "value": 86.6, "unit": "%"}, {"measurement": "viability, T/C", "setting": "second compound 0.316 µM, first compound 0.00316 µM", "value": 94.2, "unit": "%"}, {"measurement": "viability, T/C", "setting": "second compound 0.316 µM, first compound 0.01 µM", "value": 79.1, "unit": "%"}, {"measurement": "viability, T/C", "setting": "[8]", "value": 105, "unit": "%"}, {"measurement": "viability, T/C", "setting": "[9]", "value": 101, "unit": "%"}, {"measurement": "viability, T/C", "setting": "second compound 1 µM, first compound 0.000316 µM", "value": 104, "unit": "%"}, {"measurement": "viability, T/C", "setting": "second compound 1 µM, first compound 0.001 µM", "value": 118, "unit": "%"}, {"measurement": "viability, T/C", "setting": "second compound 1 µM, first compound 0.00316 µM", "value": 99, "unit": "%"}, {"measurement": "viability, T/C", "setting": "second compound 1 µM, first compound 0.01 µM", "value": 81.8, "unit": "%"}, {"measurement": "viability, T/C", "setting": "[10]", "value": 84.2, "unit": "%"}, {"measurement": "viability, T/C", "setting": "[11]", "value": 96.8, "unit": "%"}, {"measurement": "viability, T/C", "setting": "second compound 3.16 µM, first compound 0.000316 µM", "value": 100, "unit": "%"}, {"measurement": "viability, T/C", "setting": "second compound 3.16 µM, first compound 0.001 µM", "value": 105, "unit": "%"}, {"measurement": "viability, T/C", "setting": "second compound 3.16 µM, first compound 0.00316 µM", "value": 93.9, "unit": "%"}, {"measurement": "viability, T/C", "setting": "second compound 3.16 µM, first compound 0.01 µM", "value": 86.3, "unit": "%"}, {"measurement": "viability, T/C", "setting": "[12]", "value": 88.1, "unit": "%"}, {"measurement": "viability, T/C", "setting": "[13]", "value": 85.9, "unit": "%"}, {"measurement": "viability, T/C", "setting": "second compound 10 µM, first compound 0.000316 µM", "value": 81.1, "unit": "%"}, {"measurement": "viability, T/C", "setting": "second compound 10 µM, first compound 0.001 µM", "value": 87.2, "unit": "%"}, {"measurement": "viability, T/C", "setting": "second compound 10 µM, first compound 0.00316 µM", "value": 108, "unit": "%"}, {"measurement": "viability, T/C", "setting": "second compound 10 µM, first compound 0.01 µM", "value": 107, "unit": "%"}, {"measurement": "viability, T/C", "setting": "[14]", "value": 94.9, "unit": "%"}, {"measurement": "viability, T/C", "setting": "[15]", "value": 124, "unit": "%"}]}
{"smiles": "CN(C)C/C=C/C(=O)Nc1cc2c(Nc3ccc(F)c(Cl)c3)ncnc2cc1O[C@H]1CCOC1", "values": [{"measurement": "viability, T/C", "setting": "compound 0.1 µM", "value": "105% [middle of 5 runs]"}, {"measurement": "IC50", "setting": "curve of compound", "value": "> 100", "unit": "nM"}]}
{"smiles": "CC1(C)CCC(CN2CCN(c3ccc(C(=O)NS(=O)(=O)c4ccc(NCC5CCOCC5)c([N+](=O)[O-])c4)c(Oc4cnc5[nH]ccc5c4)c3)CC2)=C(c2ccc(Cl)cc2)C1", "note": "+ COc1cc2nc(C)nc(NC(C)c3cc(N)cc(C(F)(F)F)c3)c2cc1OC1CCOC1", "values": [{"measurement": "IC50", "setting": "[1]", "value": 2080, "unit": "nM"}, {"measurement": "IC50", "setting": "[2]", "value": 1940, "unit": "nM"}, {"measurement": "IC50", "setting": "[3]", "value": 1990, "unit": "nM"}, {"measurement": "IC50", "setting": "[4]", "value": 2210, "unit": "nM"}, {"measurement": "IC50", "setting": "[5]", "value": 31.6, "unit": "nM"}, {"measurement": "viability, T/C", "setting": "[6]", "value": 94.7, "unit": "%"}, {"measurement": "viability, T/C", "setting": "[7]", "value": 86.3, "unit": "%"}, {"measurement": "viability, T/C", "setting": "second compound 0.1 µM, first compound 0.316 µM", "value": 107, "unit": "%"}, {"measurement": "viability, T/C", "setting": "second compound 0.1 µM, first compound 1 µM", "value": 111, "unit": "%"}, {"measurement": "viability, T/C", "setting": "second compound 0.1 µM, first compound 3.16 µM", "value": 21.4, "unit": "%"}, {"measurement": "viability, T/C", "setting": "second compound 0.1 µM, first compound 10 µM", "value": 5.44, "unit": "%"}, {"measurement": "viability, T/C", "setting": "[8]", "value": 99.2, "unit": "%"}, {"measurement": "viability, T/C", "setting": "[9]", "value": 94.8, "unit": "%"}, {"measurement": "viability, T/C", "setting": "second compound 0.316 µM, first compound 0.316 µM", "value": 90.6, "unit": "%"}, {"measurement": "viability, T/C", "setting": "second compound 0.316 µM, first compound 1 µM", "value": 91.5, "unit": "%"}, {"measurement": "viability, T/C", "setting": "second compound 0.316 µM, first compound 3.16 µM", "value": 19.7, "unit": "%"}, {"measurement": "viability, T/C", "setting": "second compound 0.316 µM, first compound 10 µM", "value": 6.45, "unit": "%"}, {"measurement": "viability, T/C", "setting": "[10]", "value": 118, "unit": "%"}, {"measurement": "viability, T/C", "setting": "[11]", "value": 96, "unit": "%"}, {"measurement": "viability, T/C", "setting": "second compound 1 µM, first compound 0.316 µM", "value": 114, "unit": "%"}, {"measurement": "viability, T/C", "setting": "second compound 1 µM, first compound 1 µM", "value": 106, "unit": "%"}, {"measurement": "viability, T/C", "setting": "second compound 1 µM, first compound 3.16 µM", "value": 12.3, "unit": "%"}, {"measurement": "viability, T/C", "setting": "second compound 1 µM, first compound 10 µM", "value": 3.36, "unit": "%"}, {"measurement": "viability, T/C", "setting": "[12]", "value": 139, "unit": "%"}, {"measurement": "viability, T/C", "setting": "[13]", "value": 119, "unit": "%"}, {"measurement": "viability, T/C", "setting": "second compound 3.16 µM, first compound 0.316 µM", "value": 130, "unit": "%"}, {"measurement": "viability, T/C", "setting": "second compound 3.16 µM, first compound 1 µM", "value": 180, "unit": "%"}, {"measurement": "viability, T/C", "setting": "second compound 3.16 µM, first compound 3.16 µM", "value": 8.21, "unit": "%"}, {"measurement": "viability, T/C", "setting": "second compound 3.16 µM, first compound 10 µM", "value": 3.86, "unit": "%"}, {"measurement": "viability, T/C", "setting": "[14]", "value": 14.3, "unit": "%"}, {"measurement": "viability, T/C", "setting": "[15]", "value": 48.2, "unit": "%"}, {"measurement": "viability, T/C", "setting": "second compound 10 µM, first compound 0.316 µM", "value": 68.2, "unit": "%"}, {"measurement": "viability, T/C", "setting": "second compound 10 µM, first compound 1 µM", "value": 59.6, "unit": "%"}, {"measurement": "viability, T/C", "setting": "second compound 10 µM, first compound 3.16 µM", "value": 1.84, "unit": "%"}, {"measurement": "viability, T/C", "setting": "second compound 10 µM, first compound 10 µM", "value": 0.72, "unit": "%"}]}
{"smiles": "CC(C)n1nc(-c2ccc3oc(N)nc3c2)c2c(N)ncnc21", "values": [{"measurement": "viability, T/C", "setting": "compound 0.00316 µM", "value": "127% [middle of 5 runs]"}, {"measurement": "IC50", "setting": "curve of compound", "value": "> 100", "unit": "nM"}]}
{"smiles": "CCN1CCN(Cc2ccc(Nc3ncc(F)c(-c4cc(F)c5nc(C)n(C(C)C)c5c4)n3)nc2)CC1", "values": [{"measurement": "viability, T/C", "setting": "compound 0.00316 µM", "value": "98% [middle of 4 runs]"}, {"measurement": "viability, T/C", "setting": "compound 0.01 µM", "value": "90.6% [middle of 5 runs]"}, {"measurement": "viability, T/C", "setting": "compound 0.1 µM", "value": "95.5% [middle of 5 runs]"}, {"measurement": "viability, T/C", "setting": "compound 0.316 µM", "value": "117% [middle of 5 runs]"}, {"measurement": "IC50", "setting": "curve of compound", "value": "> 1000", "unit": "nM"}]}
{"smiles": "CC1(C)CCC(CN2CCN(c3ccc(C(=O)NS(=O)(=O)c4ccc(NCC5CCOCC5)c([N+](=O)[O-])c4)c(Oc4cnc5[nH]ccc5c4)c3)CC2)=C(c2ccc(Cl)cc2)C1", "values": [{"measurement": "viability, T/C", "setting": "compound 0.1 µM", "value": "90.1% [middle of 5 runs]"}, {"measurement": "viability, T/C", "setting": "compound 0.316 µM", "value": "102% [middle of 5 runs]"}, {"measurement": "viability, T/C", "setting": "compound 3.16 µM", "value": "29.4% [middle of 5 runs]"}, {"measurement": "viability, T/C", "setting": "compound 10 µM", "value": "7.19% [middle of 5 runs]"}, {"measurement": "IC50", "setting": "curve of compound", "value": "2.03 µM [middle of 5 runs]"}]}
